# Reference: publication PMC8145564, “Phenolic Compounds from Carissa spinarum Are Characterized by Their Antioxidant, Anti-Inflammatory and Hepatoprotective Activities” (Antioxidants, 2021)
# “Also recorded” adds a separate entry of the source. Marks after values point to notes of the source that are not given here.
# Experiments:
# [1] = DPPH radical scavenging activity assay; type: biochemical; conditions: for IC50: isolated compounds, final concentrations 6.25 to 100 µM; for Antioxidant potential in DPPH and FRAP (result in words): both methods (DPPH and FRAP)
# Protocol: The 2,2-diphenyl-1-picrylhydrazyl (DPPH) radical scavenging abilities of the C. spinarum extracts and isolated compounds were assessed by the previously reported method. The reaction mixtures containing 190 µL DPPH solution (100 µM) and 10 µL samples (extracts or compounds) or positive control (vitamin C) solutions with various concentrations or blank control (methanol) were placed in the 96-well plate, and incubated in darkness at room temperature for 30 min. Then, the absorbance of the reaction mixture was measured by the microplate reader at 517 nm. All groups were tested in triplicate and the DPPH radical scavenging activity was calculated by the following equation:DPPH-radical scavenging percentage (%) = [(Acontrol − Asample)/Acontrol] × 100%(1)
# Acontrol and Asample represent the absorbance of the blank control and samples or positive control, respectively. Additionally, the IC50 values, which were defined as the effective sample concentration when DPPH radical was scavenged by 50%, were calculated by the GraphPad Prism software.
# [2] = Ferric reducing antioxidant power (FRAP) assay; type: biochemical; conditions: for FRAP total antioxidant activity (result in words): isolated compounds, 6.25 to 100 µM, positive control vitamin C
# Protocol: The FRAP assay was performed according to the methodology reported in [26, 27] with minor modifications. Briefly, the FRAP working solution, composed of 300 mM acetate buffer (pH 3.6), 10 mM TPTZ solution and 20 mM FeCl3·6H2O solution in a ratio of 10:1:1 (v/v/v), was freshly prepared and warmed at 37 °C before use. Then, 190 µL FRAP working solution and 10 µL samples were added in 96-well plates and incubated at 37 °C for 10 min. The absorbance of the reaction mixture was collected by a microplate reader at 593 nm. A standard curve was established by FeSO4 at final concentrations ranging from 1.56 to 200 µM, and the total antioxidant activities of the extracts, compounds and positive controls (vitamin C) were calculated by the standard curve and expressed in terms of the FeSO4 value (µM). All the results were shown by the average values of the three biological replications.
# L02 cells [3] = experiment: Hepatoprotective activity on L02 cells against H2O2-induced oxidative stress (SRB cell viability); type: cell-based; conditions: then 300 µM H2O2 for 4 h, % of normal control, H2O2 model group 68.2% (65.2% for vitamin C); for viability at 5 µM: Homo sapiens, L02, 12 h pretreatment
# Protocol: The L02 cells were purchased from BeNa Culture Collection Company (BNCC, Beijing, China) and cultured in RPMI-1640 medium supplemented with 10% fetal bovine serum (FBS) and 1% penicillin–streptomycin solution at 37 °C under 5% CO2 in a humidified incubator. The H2O2 induced oxidative stress model of L02 cell was established according to the reported method with slight modifications. Firstly, 120 µL L02 cell suspension (1 × 10^4 cells) was seeded in a 96-well plate and incubated for 24 h, followed by the addition of 15 µL PBS buffer (corresponding to the addition of tested samples). […] The cell viability was evaluated by the SRB test kit (BestBio, Shanghai, China) following the manufacturer’s instructions. According to the above result, after the 24 h incubation, the L02 cells were pretreated with 15 µL samples of various concentrations or PBS (H2O2-induced model and normal control group) for 12 h. Then, 15 µL H2O2 solution (300 µM) or PBS (normal control group) was added and maintained for 4 h. Finally, the cell viability was tested by the SRB method and expressed as a percentage of the normal control group. Each group was performed in triplicate.
# L02 cells [4] = experiment: Quantitation of intracellular ROS (DCFH-DA) in H2O2-induced L02 cells; type: cell-based; conditions: 5 µM final concentration, DCFH-DA fluorescence
# Protocol: The quantitation of intracellular ROS was detected by the ROS assay kit purchased from Beyotime (Shanghai, China) following the manufacturer’s instructions. The cell pretreatment was the same as hepatoprotective activity screening. Four hours later, after the addition of H2O2, the cells were incubated with 10 µM DCFH-DA (final concentration in RPMI-1640 medium) for 30 min, and were then washed three times with medium. Finally, the fluorescence intensity was recorded by a microplate reader with the excitation wavelength at 488 nm and the emission wavelength at 525 nm and then the fluorescence photos were taken by a cell imaging multi-mode reader (Cytation 1, BioTek, Winooski, VT, USA). Each group was performed in triplicate and the fluorescence values were calibrated by the corresponding cell viabilities using the SRB method.
# rhCOX-2 = target: T1, rhCOX-2 (Homo sapiens, UniProt P35354); experiment: COX-2 inhibition assay (COX-2 inhibitor screening kit, fluorescence probe method)
# T1 sequence (P35354 18-604): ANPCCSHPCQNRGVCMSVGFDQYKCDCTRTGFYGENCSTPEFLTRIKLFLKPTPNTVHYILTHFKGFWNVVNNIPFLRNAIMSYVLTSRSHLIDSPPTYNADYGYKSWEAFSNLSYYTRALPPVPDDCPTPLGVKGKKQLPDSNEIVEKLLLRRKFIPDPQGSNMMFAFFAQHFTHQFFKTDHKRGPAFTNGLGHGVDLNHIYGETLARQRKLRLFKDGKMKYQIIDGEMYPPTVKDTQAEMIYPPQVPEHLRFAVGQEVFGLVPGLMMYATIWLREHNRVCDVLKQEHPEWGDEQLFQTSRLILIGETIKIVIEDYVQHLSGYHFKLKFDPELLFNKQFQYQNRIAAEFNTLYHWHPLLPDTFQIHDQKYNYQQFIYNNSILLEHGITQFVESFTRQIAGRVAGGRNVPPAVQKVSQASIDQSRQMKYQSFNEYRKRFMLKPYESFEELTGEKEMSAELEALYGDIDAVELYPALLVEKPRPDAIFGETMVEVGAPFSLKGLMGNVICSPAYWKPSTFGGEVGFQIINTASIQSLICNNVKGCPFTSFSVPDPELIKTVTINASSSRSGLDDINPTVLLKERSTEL
# Protocol: COX-2 inhibition activity was screened using a commercial assay kit by the fluorescence probe method, following the manufacturer’s instructions, based on a two-step reaction: the substrate (arachidonic acid) was firstly catalyzed by COX-2 to generate PGG2, which was then further catalyzed by COX-2 to produce PGH2. During the second step, the probe without fluorescence added in the reaction system was simultaneously catalyzed to probe with strong fluorescence. […] After incubation for 10 min at 37 °C, 5 µL COX-2 substrate and 5 µL COX-2 probe were added and incubated in darkness for 10 min. Then, the fluorescence intensity was recorded by microplate reader with the excitation wavelength at 560 nm and the emission wavelength at 590 nm. The COX-2 activity inhibition percentage was calculated by the following equation: COX-2 activity inhibition (%) = [(F100% activity control − Fsample)/(F100% activity control − Fblank control)] × 100%(2) where F100% activity control, Fsample and Fblank control represent the fluorescence intensity of the 100% enzyme activity control, samples or positive control, and blank control, respectively.
compound,measurement,setting,value
"O=C(O)c1ccc(O)c(O)c1 [Compound 9, protocatechuic acid]",IC50,[1]; means ± SD (n = 3),16.5 ± 1.2 µM
same,FRAP total antioxidant activity (result in words),[2],higher reducing capacities than the positive control
same,viability at 5 µM,L02 cells [3],80.9%
same,ROS quantity versus H2O2-induced model group,L02 cells [4],statistically significant decreases in ROS quantity
"COc1cc([C@@H](O)[C@@H](C)O)ccc1O [Compound 6, erythro-1-(3-methoxy-4-hydroxy-phenyl)-propan-1,2-diol]",FRAP total antioxidant activity (result in words),[2],higher reducing capacities than the positive control
"COc1cc([C@@H](O)[C@H](C)O)ccc1O [Compound 7, threo-1-(3-methoxy-4-hydroxy-phenyl)-propan-1,2-diol]",FRAP total antioxidant activity (result in words),[2],higher reducing capacities than the positive control
"CC(=O)c1ccccc1O[C@@H]1OC(CO[C@@H]2OC[C@@H](O)[C@H](O)[C@H]2O)[C@@H](O)[C@H](O)[C@H]1O (stereo partly drawn) [Compound 5, acetophenone-2-O-β-xylopyranosyl-(1→6)-O-β-glucopyranoside]",Antioxidant potential in DPPH and FRAP (result in words),[1],no obvious antioxidant potential
"COc1cc([C@H]2c3cc(O)c(OC)cc3C[C@@H](CO)[C@@H]2CO[C@@H]2O[C@H](CO)[C@@H](O)[C@H](O)[C@H]2O)ccc1O [Compound 2, (+)-isolariciresinol 3a-O-β-D-glucopyranoside]",FRAP total antioxidant activity (result in words),[2],higher reducing capacities than the positive control
same,viability at 5 µM,L02 cells [3],79.4%
same,ROS quantity versus H2O2-induced model group,L02 cells [4],statistically significant decreases in ROS quantity
same,IC50,rhCOX-2,0.3 µM
"O=C1O[C@H]([C@@H](O)CO)C(O)=C1O [Vitamin C, vitamin C, reference compound]",DPPH IC50,"[1]; extracts of C. spinarum root bark, 30 min, 517 nm, means ± SD (n = 3)",4.5 ± 0.1 ^d µg/mL
same,IC50,[1]; means ± SD (n = 3),25.5 ± 0.3 µM
same,FRAP,"[2]; extracts of C. spinarum root bark, means ± SD (n = 3)",8.9 ± 1.2 ^b mmol Fe^2+/g
same,Viability of L02 cells,"L02 cells [3]; 5 µM, 12 h pretreatment",82.7%
"O=C(O)Cc1cccc(C(=O)O)c1 [Compound 8, 3-carboxymethyl-benzoic acid]",Antioxidant potential in DPPH and FRAP (result in words),[1],no obvious antioxidant potential
same,DPPH scavenging rate at the highest tested concentration,[1]; highest tested concentration (100 µM),lower than 10%
same,FRAP total antioxidant activity (result in words),[2],did not show any activities
same,COX-2 inhibition activity (result in words),"rhCOX-2; all tested concentrations, 0.04 to 25 µM",no COX-2 ability in all tested concentrations; also recorded: did not show any activities
